The record followed here is ChEMBL document CHEMBL3797192, “Potential pancreatic lipase inhibitory activity of phenolic constituents from the root bark of Morus alba L” (Bioorg Med Chem Lett, 2016).

SMILES strings stand for the structures.

In the assay the target is T1, Pancreatic triacylglycerol lipase (Sus scrofa, UniProt P00591).
T1 sequence (P00591 whole entry): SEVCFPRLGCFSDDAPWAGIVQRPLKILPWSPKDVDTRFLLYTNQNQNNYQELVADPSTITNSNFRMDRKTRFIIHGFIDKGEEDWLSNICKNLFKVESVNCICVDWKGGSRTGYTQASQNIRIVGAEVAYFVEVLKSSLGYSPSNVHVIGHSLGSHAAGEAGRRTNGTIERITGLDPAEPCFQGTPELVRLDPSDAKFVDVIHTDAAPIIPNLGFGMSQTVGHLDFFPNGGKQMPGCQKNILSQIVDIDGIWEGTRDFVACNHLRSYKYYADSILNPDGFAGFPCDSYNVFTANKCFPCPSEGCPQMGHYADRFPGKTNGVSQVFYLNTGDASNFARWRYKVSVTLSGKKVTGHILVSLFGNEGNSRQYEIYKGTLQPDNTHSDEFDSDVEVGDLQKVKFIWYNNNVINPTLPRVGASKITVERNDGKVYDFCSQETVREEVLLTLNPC
Description: Inhibition of porcine pancreatic lipase using p-nitrophenyl butyrate as substrate assessed as formation of p-nitrophenol preincubated for 10 mins followed by substrate addition by spectrophotometric method.
With `CC(C)=CCC/C(C)=C\Cc1c(O)ccc2cc(-c3cc(O)c4ccoc4c3)oc12`, the IC50 (in general, the concentration needed to halve the response being measured) was found to be 480 nM. On to `COc1cc(O)cc(-c2cc3ccc(O)c(C/C=C(/C)CCC=C(C)C)c3o2)c1CC=C(C)C`, for which the IC50 turned out to be 920 nM.

Turning to `CC(C)=CCCC(C)=CCc1c(O)cc2c(c1O)C(=O)C[C@@H](c1ccc(O)c(CC=C(C)C)c1O)O2`, the IC50 is 710 nM.

For the compound `COc1cc(O)cc(/C=C/c2ccc(O)cc2)c1C/C=C(/C)CCC=C(C)C`, the IC50 is 850 nM.

In the case of `CC(C)=CCCC1(C)C=Cc2c(O)cc(-c3cc4ccc(O)cc4o3)cc2O1` (centres undefined), the IC50 worked out at 760 nM. For the compound `CC(C)=CCC/C(C)=C\CC/C(C)=C\Cc1c(O)cc(O)c(CC=C(C)C)c1-c1cc2ccc(O)cc2o1`, the IC50 was found to be 390 nM. Next, `COc1cc(O)cc(-c2cc3ccc(O)cc3o2)c1C/C=C(/C)CC/C=C(/C)CCC=C(C)C`: 570 nM; `CC(C)=CCC/C(C)=C/Cc1c(O)ccc2cc(-c3cc(O)cc(O)c3CC=C(C)C)oc12` [MULBERROFURAN D]: 90 nM; `CC(C)=CCC/C(C)=C\CC/C(C)=C\Cc1c(O)cc(O)cc1-c1cc2ccc(O)cc2o1` [MULBERROFURAN W]: 700 nM.
